Reference: the NIST ThermoML archive (doi:10.1021/je700152c)
Numbers after ± are expanded uncertainties.

Tests used:
[1] = molar heat capacity at constant pressure; conditions: 101.33 kPa
[2] = molar heat capacity at constant pressure; xn = mol fraction of the nth substance listed; conditions: 101 kPa, Liquid, x1 = 0.37

CCCCn1cc[n+](C)c1.Cc1ccc(S(=O)(=O)[O-])cc1 [1-butyl-3-methylimidazolium tosylate]
molar heat capacity at constant pressure ([1]; 5 K, Crystal 2): 2.54 ± 0.13 J/K/mol
molar heat capacity at constant pressure ([1]; 10 K, Crystal 2): 11.91 ± 0.42 J/K/mol
molar heat capacity at constant pressure ([1]; 15 K, Crystal 2): 24.31 ± 0.72 J/K/mol
molar heat capacity at constant pressure ([1]; 20 K, Crystal 2): 37.67 ± 0.95 J/K/mol
molar heat capacity at constant pressure ([1]; 25 K, Crystal 2): 51.27 ± 1.1 J/K/mol
molar heat capacity at constant pressure ([1]; 30 K, Crystal 2): 64.46 ± 0.85 J/K/mol
molar heat capacity at constant pressure ([1]; 35 K, Crystal 2): 76.73 ± 0.96 J/K/mol
molar heat capacity at constant pressure ([1]; 40 K, Crystal 2): 87.97 ± 1.1 J/K/mol
molar heat capacity at constant pressure ([1]; 45 K, Crystal 2): 98.44 ± 1.2 J/K/mol
molar heat capacity at constant pressure ([1]; 50 K, Crystal 2): 108.3 ± 1.2 J/K/mol
molar heat capacity at constant pressure ([1]; 60 K, Crystal 2): 125.9 ± 1.5 J/K/mol
molar heat capacity at constant pressure ([1]; 70 K, Crystal 2): 141.6 ± 1.6 J/K/mol
molar heat capacity at constant pressure ([1]; 80 K, Crystal 2): 156 ± 1.7 J/K/mol
molar heat capacity at constant pressure ([1]; 90 K, Crystal 2): 169.3 ± 1.7 J/K/mol
molar heat capacity at constant pressure ([1]; 100 K, Crystal 2): 181.9 ± 1.8 J/K/mol
molar heat capacity at constant pressure ([1]; 105 K, Crystal 2): 188.1 ± 1.9 J/K/mol
molar heat capacity at constant pressure ([1]; 110 K, Crystal 2): 194.1 ± 1.9 J/K/mol
molar heat capacity at constant pressure ([1]; 120 K, Crystal 2): 206 ± 2.1 J/K/mol
molar heat capacity at constant pressure ([1]; 130 K, Crystal 2): 218 ± 2.2 J/K/mol
molar heat capacity at constant pressure ([1]; 140 K, Crystal 2): 230 ± 2.2 J/K/mol
molar heat capacity at constant pressure ([1]; 150 K, Crystal 2): 241.9 ± 2.3 J/K/mol
molar heat capacity at constant pressure ([1]; 152.77 K, Crystal 1): 238.4 ± 2.3 J/K/mol
molar heat capacity at constant pressure ([1]; 152.77 K, Crystal 2): 245.2 ± 2.3 J/K/mol
molar heat capacity at constant pressure ([1]; 160 K, Crystal 1): 246.2 ± 2.4 J/K/mol
molar heat capacity at constant pressure ([1]; 170 K, Crystal 1): 257 ± 2.5 J/K/mol
molar heat capacity at constant pressure ([1]; 180 K, Crystal 1): 267.8 ± 2.6 J/K/mol
molar heat capacity at constant pressure ([1]; 190 K, Crystal 1): 278.8 ± 2.7 J/K/mol
molar heat capacity at constant pressure ([1]; 200 K, Crystal 1): 289.9 ± 2.7 J/K/mol
molar heat capacity at constant pressure ([1]; 210 K, Crystal 1): 301.5 ± 2.8 J/K/mol
molar heat capacity at constant pressure ([1]; 220 K, Crystal 1): 313.3 ± 2.9 J/K/mol
molar heat capacity at constant pressure ([1]; 230 K, Crystal 1): 335.4 ± 3.1 J/K/mol
molar heat capacity at constant pressure ([1]; 240 K, Crystal 1): 348.3 ± 3.2 J/K/mol
molar heat capacity at constant pressure ([1]; 250 K, Crystal 1): 359.9 ± 3.2 J/K/mol
molar heat capacity at constant pressure ([1]; 260 K, Crystal 1): 371.2 ± 3.4 J/K/mol
molar heat capacity at constant pressure ([1]; 270 K, Crystal 1): 382.3 ± 3.5 J/K/mol
molar heat capacity at constant pressure ([1]; 280 K, Crystal 1): 393.3 ± 3.6 J/K/mol
molar heat capacity at constant pressure ([1]; 290 K, Crystal 1): 404.1 ± 3.7 J/K/mol
molar heat capacity at constant pressure ([1]; 298.15 K, Crystal 1): 412.7 ± 3.7 J/K/mol
molar heat capacity at constant pressure ([1]; 300 K, Crystal 1): 414.6 ± 3.7 J/K/mol
molar heat capacity at constant pressure ([1]; 310 K, Crystal 1): 425 ± 3.8 J/K/mol
molar heat capacity at constant pressure ([1]; 320 K, Crystal 1): 435.3 ± 3.9 J/K/mol
molar heat capacity at constant pressure ([1]; 330 K, Crystal 1): 445.3 ± 4 J/K/mol
molar heat capacity at constant pressure ([1]; 340 K, Crystal 1): 455.1 ± 4.1 J/K/mol
molar heat capacity at constant pressure ([1]; 343.89 K, Crystal 1): 458.7 ± 4.1 J/K/mol
molar heat capacity at constant pressure ([1]; 343.89 K, Liquid): 543.4 ± 4.7 J/K/mol
molar heat capacity at constant pressure ([1]; 350 K, Liquid): 548.4 ± 4.8 J/K/mol
molar heat capacity at constant pressure ([1]; 360 K, Liquid): 556 ± 4.8 J/K/mol
molar heat capacity at constant pressure ([1]; 370 K, Liquid): 563.1 ± 4.9 J/K/mol
molar heat capacity at constant pressure ([1]; 380 K, Liquid): 569.8 ± 5 J/K/mol
Triple point temperature (Crystal 1, Adiabatic calorimetry): 343.8 ± 0.67 K
Triple point temperature (Crystal 2, Adiabatic calorimetry): 152 ± 1 K
Triple point temperature (Metastable crystal): 342.48 ± 0.2 K

CCCCn1cc[n+](C)c1.Cc1ccc(S(=O)(=O)[O-])cc1 [1-butyl-3-methylimidazolium tosylate] + O
molar heat capacity at constant pressure ([2]; 78.74 K): 66.26 ± 0.88 J/K/mol
molar heat capacity at constant pressure ([2]; 81.34 K): 67.77 ± 0.88 J/K/mol
molar heat capacity at constant pressure ([2]; 83.37 K): 68.91 ± 0.88 J/K/mol
molar heat capacity at constant pressure ([2]; 85.4 K): 70.17 ± 0.88 J/K/mol
molar heat capacity at constant pressure ([2]; 87.43 K): 71.43 ± 0.88 J/K/mol
molar heat capacity at constant pressure ([2]; 89.46 K): 72.69 ± 1 J/K/mol
molar heat capacity at constant pressure ([2]; 91.5 K): 73.83 ± 1 J/K/mol
molar heat capacity at constant pressure ([2]; 93.53 K): 75.09 ± 1 J/K/mol
molar heat capacity at constant pressure ([2]; 95.58 K): 76.35 ± 1 J/K/mol
molar heat capacity at constant pressure ([2]; 97.63 K): 77.49 ± 1 J/K/mol
molar heat capacity at constant pressure ([2]; 99.68 K): 78.62 ± 1.1 J/K/mol
molar heat capacity at constant pressure ([2]; 101.73 K): 79.76 ± 1.1 J/K/mol
molar heat capacity at constant pressure ([2]; 103.78 K): 81.02 ± 1.1 J/K/mol
molar heat capacity at constant pressure ([2]; 105.84 K): 82.16 ± 1.1 J/K/mol
molar heat capacity at constant pressure ([2]; 107.9 K): 83.29 ± 1.1 J/K/mol
molar heat capacity at constant pressure ([2]; 109.96 K): 84.43 ± 1.1 J/K/mol
molar heat capacity at constant pressure ([2]; 112.02 K): 85.57 ± 1.1 J/K/mol
molar heat capacity at constant pressure ([2]; 114.09 K): 86.7 ± 1.1 J/K/mol
molar heat capacity at constant pressure ([2]; 116.17 K): 87.84 ± 1.1 J/K/mol
molar heat capacity at constant pressure ([2]; 118.24 K): 88.97 ± 1.1 J/K/mol
molar heat capacity at constant pressure ([2]; 120.32 K): 90.23 ± 1.1 J/K/mol
molar heat capacity at constant pressure ([2]; 122.39 K): 91.37 ± 1.1 J/K/mol
molar heat capacity at constant pressure ([2]; 124.47 K): 92.51 ± 1.1 J/K/mol
molar heat capacity at constant pressure ([2]; 126.55 K): 93.64 ± 1.3 J/K/mol
molar heat capacity at constant pressure ([2]; 128.64 K): 94.78 ± 1.3 J/K/mol
molar heat capacity at constant pressure ([2]; 130.73 K): 96.04 ± 1.3 J/K/mol
molar heat capacity at constant pressure ([2]; 132.81 K): 97.3 ± 1.3 J/K/mol
molar heat capacity at constant pressure ([2]; 134.9 K): 98.31 ± 1.3 J/K/mol
molar heat capacity at constant pressure ([2]; 136.98 K): 99.57 ± 1.3 J/K/mol
molar heat capacity at constant pressure ([2]; 139.08 K): 100.71 ± 1.3 J/K/mol
molar heat capacity at constant pressure ([2]; 141.17 K): 101.85 ± 1.3 J/K/mol
molar heat capacity at constant pressure ([2]; 143.27 K): 103.11 ± 1.3 J/K/mol
molar heat capacity at constant pressure ([2]; 145.36 K): 104.24 ± 1.3 J/K/mol
molar heat capacity at constant pressure ([2]; 147.46 K): 105.38 ± 1.3 J/K/mol
molar heat capacity at constant pressure ([2]; 149.56 K): 106.64 ± 1.3 J/K/mol
molar heat capacity at constant pressure ([2]; 151.66 K): 107.78 ± 1.3 J/K/mol
molar heat capacity at constant pressure ([2]; 153.77 K): 108.91 ± 1.3 J/K/mol
molar heat capacity at constant pressure ([2]; 155.87 K): 110.17 ± 1.4 J/K/mol
molar heat capacity at constant pressure ([2]; 157.98 K): 111.44 ± 1.4 J/K/mol
molar heat capacity at constant pressure ([2]; 160.09 K): 112.57 ± 1.4 J/K/mol
molar heat capacity at constant pressure ([2]; 162.2 K): 113.71 ± 1.4 J/K/mol
molar heat capacity at constant pressure ([2]; 164.31 K): 114.97 ± 1.4 J/K/mol
molar heat capacity at constant pressure ([2]; 166.42 K): 116.23 ± 1.4 J/K/mol
molar heat capacity at constant pressure ([2]; 168.54 K): 117.37 ± 1.4 J/K/mol
molar heat capacity at constant pressure ([2]; 170.66 K): 118.63 ± 1.4 J/K/mol
molar heat capacity at constant pressure ([2]; 172.78 K): 119.89 ± 1.4 J/K/mol
molar heat capacity at constant pressure ([2]; 174.9 K): 121.03 ± 1.4 J/K/mol
molar heat capacity at constant pressure ([2]; 177.02 K): 122.29 ± 1.4 J/K/mol
molar heat capacity at constant pressure ([2]; 179.14 K): 123.55 ± 1.4 J/K/mol
molar heat capacity at constant pressure ([2]; 181.27 K): 124.94 ± 1.5 J/K/mol
molar heat capacity at constant pressure ([2]; 183.39 K): 126.58 ± 1.5 J/K/mol
molar heat capacity at constant pressure ([2]; 185.51 K): 128.6 ± 1.5 J/K/mol
molar heat capacity at constant pressure ([2]; 187.64 K): 131.63 ± 1.5 J/K/mol
molar heat capacity at constant pressure ([2]; 189.76 K): 138.07 ± 1.5 J/K/mol
molar heat capacity at constant pressure ([2]; 191.84 K): 148.79 ± 1.6 J/K/mol
molar heat capacity at constant pressure ([2]; 193.9 K): 159.02 ± 1.8 J/K/mol
molar heat capacity at constant pressure ([2]; 195.93 K): 176.18 ± 1.9 J/K/mol
molar heat capacity at constant pressure ([2]; 198 K): 179.59 ± 1.9 J/K/mol
molar heat capacity at constant pressure ([2]; 200.12 K): 180.34 ± 1.9 J/K/mol
molar heat capacity at constant pressure ([2]; 202.26 K): 181.1 ± 1.9 J/K/mol
molar heat capacity at constant pressure ([2]; 204.39 K): 181.73 ± 1.9 J/K/mol
molar heat capacity at constant pressure ([2]; 206.52 K): 182.24 ± 1.9 J/K/mol
molar heat capacity at constant pressure ([2]; 208.65 K): 182.87 ± 1.9 J/K/mol
molar heat capacity at constant pressure ([2]; 210.79 K): 183.5 ± 1.9 J/K/mol
molar heat capacity at constant pressure ([2]; 212.93 K): 184.13 ± 1.9 J/K/mol
molar heat capacity at constant pressure ([2]; 215.07 K): 184.63 ± 1.9 J/K/mol
molar heat capacity at constant pressure ([2]; 217.23 K): 185.39 ± 1.9 J/K/mol
molar heat capacity at constant pressure ([2]; 219.38 K): 185.9 ± 1.9 J/K/mol
molar heat capacity at constant pressure ([2]; 221.54 K): 186.65 ± 1.9 J/K/mol
molar heat capacity at constant pressure ([2]; 223.7 K): 187.28 ± 1.9 J/K/mol
molar heat capacity at constant pressure ([2]; 225.87 K): 188.04 ± 1.9 J/K/mol
